According to patent US8148391B2 (Cephalon, Inc., priority 2006, dated 2012):
Like-named read-outs stand apart in the source and are kept apart here.

Tests used:
[1] = target: T1, baculovirus-expressed ALK (Homo sapiens, UniProt Q9UM73); experiment: ALK Kinase Assay (ELISA-type, time-resolved fluorescence); format: biochemical
T1 construct: host or cells: baculovirus expression system
How it was run: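 Plates coated with phospholipase C-γ substrate (10 μg/mL in TBS); reaction started with 30 ng/ml ALK and run 15 min at 37° C. Phosphorylated substrate detected with Eu-N1-labeled PT66 antibody. IC50 from sigmoidal variable-slope fit of percent inhibition vs log concentration.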

[2] = target: T2, c-Met (cytoplasmic domain) (Homo sapiens, UniProt P08581); experiment: c-Met Kinase Assay (same methods as for ALK, with modifications); format: biochemical
T2 construct: 10 ng/mL c-Met (cytoplasmic domain, Invitrogen Corporation #PV3143); purchased Invitrogen Corporation PV3143
T2 sequence (P08581 956-1390 limits assumed): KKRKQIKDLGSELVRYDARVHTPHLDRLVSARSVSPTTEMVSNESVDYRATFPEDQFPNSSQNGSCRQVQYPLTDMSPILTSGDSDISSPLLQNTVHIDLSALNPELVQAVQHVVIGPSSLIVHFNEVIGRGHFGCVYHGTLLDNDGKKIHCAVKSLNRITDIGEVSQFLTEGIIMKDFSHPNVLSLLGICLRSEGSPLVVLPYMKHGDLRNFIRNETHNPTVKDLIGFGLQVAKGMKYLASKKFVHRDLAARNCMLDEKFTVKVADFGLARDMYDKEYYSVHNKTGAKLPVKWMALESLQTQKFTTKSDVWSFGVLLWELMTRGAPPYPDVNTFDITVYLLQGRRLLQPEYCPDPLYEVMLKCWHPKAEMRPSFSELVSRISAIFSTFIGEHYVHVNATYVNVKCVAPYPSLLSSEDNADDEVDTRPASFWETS
How it was run: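 Europium-labeled PT66 antibody (Eu-N1) detects substrate phosphorylation on wells coated with phospholipase C-γ at 10 μg/mL. The kinase, the cytoplasmic domain of c-Met at 10 ng/mL, starts the reaction, which proceeds 15 minutes at 37° C.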

[3] = 1 μM ATP (Km level), read-out: ALK Activity (ALK Kinase Inhibition, IC50)
[4] = 1 μM ATP (Km level), read-out: cMet Activity (c-Met Kinase Inhibition, IC50)
[5] = ALK kinase inhibition, 1 μM ATP, read-out: ALK Activity
[6] = c-Met kinase inhibition, 1 μM ATP, read-out: cMet Activity
[7] = ALK kinase inhibition, 1 μM ATP (Km level), read-out: ALK Activity
[8] = c-Met kinase inhibition, 1 μM ATP (Km level), read-out: cMet Activity
[9] = 1 μM ATP (Km level), 30 ng/ml ALK, 37° C., 15 minutes, read-out: ALK Activity (ALK kinase inhibition, IC50 class)
[10] = 1 μM ATP (Km level), 10 ng/mL c-Met, read-out: cMet Activity (c-Met kinase inhibition, IC50 class)

T1 sequence (Q9UM73 19-1620): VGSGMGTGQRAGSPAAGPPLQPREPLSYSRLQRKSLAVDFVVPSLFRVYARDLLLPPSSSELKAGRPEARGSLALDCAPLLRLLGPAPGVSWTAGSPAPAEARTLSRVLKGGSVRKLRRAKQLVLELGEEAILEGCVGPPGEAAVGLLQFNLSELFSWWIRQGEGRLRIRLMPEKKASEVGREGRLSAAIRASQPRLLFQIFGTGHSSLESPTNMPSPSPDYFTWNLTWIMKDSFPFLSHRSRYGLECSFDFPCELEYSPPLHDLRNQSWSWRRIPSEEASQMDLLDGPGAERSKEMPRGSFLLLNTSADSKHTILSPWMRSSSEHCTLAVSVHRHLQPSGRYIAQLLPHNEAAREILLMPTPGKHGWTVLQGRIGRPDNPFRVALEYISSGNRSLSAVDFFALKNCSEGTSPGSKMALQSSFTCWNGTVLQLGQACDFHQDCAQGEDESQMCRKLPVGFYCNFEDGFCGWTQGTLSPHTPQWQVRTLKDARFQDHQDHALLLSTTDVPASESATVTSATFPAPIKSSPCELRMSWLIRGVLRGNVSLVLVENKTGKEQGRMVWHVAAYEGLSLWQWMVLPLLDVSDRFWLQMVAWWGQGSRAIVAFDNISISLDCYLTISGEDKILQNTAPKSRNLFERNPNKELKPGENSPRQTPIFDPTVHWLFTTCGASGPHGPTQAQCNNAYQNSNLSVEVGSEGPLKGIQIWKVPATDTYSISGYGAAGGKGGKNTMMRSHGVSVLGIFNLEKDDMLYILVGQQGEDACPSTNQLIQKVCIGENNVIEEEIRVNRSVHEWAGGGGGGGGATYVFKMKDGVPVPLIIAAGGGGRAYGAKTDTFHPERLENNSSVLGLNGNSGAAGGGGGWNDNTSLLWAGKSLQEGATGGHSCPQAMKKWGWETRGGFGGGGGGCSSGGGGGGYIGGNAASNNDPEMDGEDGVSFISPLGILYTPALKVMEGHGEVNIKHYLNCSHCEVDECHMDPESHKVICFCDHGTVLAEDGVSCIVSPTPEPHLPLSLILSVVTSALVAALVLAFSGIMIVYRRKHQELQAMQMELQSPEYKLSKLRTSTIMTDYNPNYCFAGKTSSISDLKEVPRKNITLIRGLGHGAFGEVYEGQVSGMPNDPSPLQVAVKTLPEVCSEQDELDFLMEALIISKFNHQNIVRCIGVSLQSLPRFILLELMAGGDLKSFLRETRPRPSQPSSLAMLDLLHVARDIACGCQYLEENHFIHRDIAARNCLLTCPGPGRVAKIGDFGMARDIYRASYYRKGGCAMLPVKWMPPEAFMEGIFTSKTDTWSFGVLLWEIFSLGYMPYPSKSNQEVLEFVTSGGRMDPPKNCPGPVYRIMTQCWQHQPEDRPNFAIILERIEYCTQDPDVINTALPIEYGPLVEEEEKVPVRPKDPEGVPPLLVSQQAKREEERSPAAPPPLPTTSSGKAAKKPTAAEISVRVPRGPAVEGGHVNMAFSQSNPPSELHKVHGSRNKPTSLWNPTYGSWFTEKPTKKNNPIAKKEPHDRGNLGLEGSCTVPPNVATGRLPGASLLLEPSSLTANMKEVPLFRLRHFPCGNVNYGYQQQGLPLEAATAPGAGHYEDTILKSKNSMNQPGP

Q: For `COc1c(Nc2ncc(Cl)c(Nc3ccccc3S(=O)(=O)N3CCCC3)n2)ccc2c1CCC(N1CCOCC1)CC2` (stereo not drawn) [Example 900, 5-Chloro-N*2*-(1-methoxy-7-morpholin-4-yl-6,7,8,9-tetrahydro-5H-benzocyclohepten-2-yl)-N*4*-[2-(pyrrolidine-1-sulfonyl)-phenyl]-pyrimidine-2,4-diamine], which IC50 [1, 3] is on record?
A: < 100 nM

Q: What about the IC50 [2, 4] of the same compound?
A: 1000 to 10000 nM

Q: What does the source list for `COc1cc2c(cc1Nc1ncc(Cl)c(Nc3ccccc3S(=O)(=O)N3CC[C@H](C)C3)n1)CCN(CCO)CC2` [Example 855, 2-(7-{5-Chloro-4-[2-((S)-3-methyl-pyrrolidine-1-sulfonyl)-phenylamino]-pyrimidin-2-ylamino}-8-methoxy-1,2,4,5-tetrahydro-benzo[d]azepin-3-yl)-ethanol]?
A: IC50 [1, 3]: < 100 nM; IC50 [2, 4]: 100 to 1000 nM

Q: What does the source list for `COc1cc2c(cc1Nc1ncc(Cl)c(N[C@H]3[C@@H](C(N)=O)[C@@H]4C=C[C@H]3C4)n1)CCN(C[C@H](O)C(F)(F)F)CC2` [Example 1673, (1S,2S,3R,4R)-3-{5-Chloro-2-[8-methoxy-3-((S)-3,3,3-trifluoro-2-hydroxy-propyl)-2,3,4,5-tetrahydro-1H-benzo[d]azepin-7-ylamino]-pyrimidin-4-ylamino}-bicyclo[2.2.1]hept-5-ene-2-carboxylic acid amide]?
A: IC50 [1, 5]: < 100 nM; IC50 [2, 6]: > 10000 nM

Q: Which results are given for `CCNC(=O)c1cccc(F)c1Nc1nc(Nc2cc3c(cc2OC)CCN(CC(C)(F)F)CC3)ncc1Cl` [Example 789, 2-{5-Chloro-2-[3-(2,2-difluoro-propyl)-8-methoxy-2,3,4,5-tetrahydro-1H-benzo[d]azepin-7-ylamino]-pyrimidin-4-ylamino}-N-ethyl-3-fluoro-benzamide]?
A: IC50 [1, 3]: < 100 nM; IC50 [2, 4]: 1000 to 10000 nM

Q: What does the source list for `CCN1C(=O)CN(S(C)(=O)=O)Cc2ccc(Nc3ncc(Cl)c(Nc4ccsc4C(=O)NC)n3)cc21` [Example 1872, 3-[5-Chloro-2-(1-ethyl-4-methanesulfonyl-2-oxo-2,3,4,5-tetrahydro-1H-benzo[e][1,4]diazepin-8-ylamino)-pyrimidin-4-ylamino]-thiophene-2-carboxylic acid methylamide]?
A: IC50 [1, 5]: 1000 to 10000 nM; IC50 [2, 6]: 1000 to 10000 nM

Q: With `CNC(=O)c1ccccc1Nc1nc(Nc2ccc3c(c2)CCC(N2CCOCC2)CC3)ncc1Cl` (stereo not drawn) [Example 178, 2-[5-Chloro-2-(7-morpholin-4-yl-6,7,8,9-tetrahydro-5H-benzocyclohepten-2-ylamino)-pyrimidin-4-ylamino]-N-methyl-benzamide] as the compound, how does the IC50 [1, 7] read?
A: < 100 nM

Q: What about the IC50 [2, 8] of the same compound?
A: < 100 nM

Q: What does the source list for `CNC(=O)c1scc(C)c1Nc1nc(Nc2ccc3c(c2)CCC(=O)NC3(C)C)ncc1Cl` [Example 1829]?
A: IC50 [1, 5]: 1000 to 10000 nM; IC50 [2, 6]: < 100 nM

Q: `CNC(=O)CN1CCc2ccc(Nc3ncc(Cl)c(Nc4c(Cl)cccc4C(=O)NC)n3)cc2CC1` [Example 1373, 3-Chloro-2-[5-chloro-2-(3-methylcarbamoylmethyl-2,3,4,5-tetrahydro-1H-benzo[d]azepin-7-ylamino)-pyrimidin-4-ylamino]-N-methyl-benzamide] was tested. Which IC50 [1, 9] did it give?
A: 100 to 1000 nM

Q: What about the IC50 [2, 10] of the same compound?
A: < 100 nM

Q: What does the source list for `CNC(=O)c1cccc(F)c1Nc1nc(Nc2ccc3c(c2)N(C)CCCO3)ncc1Cl` [Example 1707, 2-[5-Chloro-2-(9-methyl-6,7,8,9-tetrahydro-5-oxa-9-aza-benzocyclohepten-2-ylamino)-pyrimidin-4-ylamino]-3-fluoro-N-methyl-benzamide]?
A: IC50 [1, 5]: < 100 nM; IC50 [2, 6]: < 100 nM

Q: Which IC50 [1, 5] does the source give for `CNC(=O)c1scc(C)c1Nc1nc(Nc2ccc3c(c2)CC(=O)N(C)CC3)ncc1Cl` [Example 1816, 3-[5-Chloro-2-(3-methyl-4-oxo-2,3,4,5-tetrahydro-1H-benzo[d]azepin-7-ylamino)-pyrimidin-4-ylamino]-4-methyl-thiophene-2-carboxylic acid methylamide] here?
A: < 100 nM

Q: What about the IC50 [2, 6] of the same compound?
A: 100 to 1000 nM

Q: Which IC50 [1, 9] does the source give for `CCNC(=O)c1cccc(F)c1Nc1nc(Nc2ccc3c(c2)C(C)(C)CCC(=O)N3C)ncc1Cl` [Example 1366, 2-[5-Chloro-2-(1,5,5-trimethyl-2-oxo-2,3,4,5-tetrahydro-1H-benzo[b]azepin-7-ylamino)-pyrimidin-4-ylamino]-N-ethyl-3-fluoro-benzamide] here?
A: < 100 nM

Q: What about the IC50 [2, 10] of the same compound?
A: < 100 nM

Q: Which IC50 [1, 9] does the source give for `CNC(=O)c1cccc(F)c1Nc1nc(Nc2ccc3c(c2)NC(=O)C(N2CCOCC2)CC3(C)C)ncc1Cl` (stereo not drawn) [Example 1288, 2-[5-Chloro-2-(5,5-dimethyl-3-morpholin-4-yl-2-oxo-2,3,4,5-tetrahydro-1H-1-benzazepin-8-ylamino)-pyrimidin-4-ylamino]-3-fluoro-N-methyl-benzamide] here?
A: 100 to 1000 nM

Q: And the IC50 [2, 10]?
A: < 100 nM

Q: For `CNC(=O)c1cccc(Cl)c1Nc1nc(Nc2ccc3c(c2)C(C)(C)NC(=O)CC3)ncc1Cl` [Example 1834, 3-Chloro-2-(5-chloro-2-(1,1-dimethyl-3-oxo-2,3,4,5-tetrahydro-1H-benzo[c]azepin-8-ylamino)pyrimidin-4-ylamino)-N-methylbenzamide], which IC50 [1, 5] is on record?
A: < 100 nM

Q: And the IC50 [2, 6]?
A: < 100 nM

Q: How did the IC50 [1, 9] turn out when `CCN1C(=O)[C@@H](N)CCc2c1ccc(Nc1ncc(Cl)c(N[C@H]3[C@@H](C(N)=O)[C@@H]4C=C[C@H]3C4)n1)c2OC` (single isomer, unassigned) [Example 1332] was run?
A: < 100 nM

Q: What about the IC50 [2, 10] of the same compound?
A: > 10000 nM

Q: For `CNC(=O)c1ccccc1Nc1nc(Nc2ccc3c(c2)N(C)CCN(C(=O)n2ccnc2)C3)ncc1Cl` [Example 486, 2-{5-Chloro-2-[4-(imidazole-1-carbonyl)-1-methyl-2,3,4,5-tetrahydro-1H-benzo[e][1,4]diazepin-8-ylamino]-pyrimidin-4-ylamino}-N-methyl-benzamide], which IC50 [1, 7] is on record?
A: < 100 nM

Q: What about the IC50 [2, 8] of the same compound?
A: < 100 nM

Q: With `CNC(=O)c1cc(F)cc(F)c1Nc1nc(Nc2ccc3c(c2)CCN(CCOC)CC3)ncc1Cl` [Example 1277, 2-{5-Chloro-2-[3-(2-methoxy-ethyl)-2,3,4,5-tetrahydro-1H-3-benzazepin-7-ylamino]-pyrimidin-4-ylamino}-3,5-difluoro-N-methyl-benzamide] as the compound, how does the IC50 [1, 9] read?
A: 100 to 1000 nM

Q: What about the IC50 [2, 10] of the same compound?
A: 100 to 1000 nM

Q: How did the IC50 [1, 7] turn out when `CNC(=O)c1sccc1Nc1nc(Nc2ccc3c(c2)N(C(C)=O)CC(=O)NC3)ncc1Cl` [Example 1878, 3-[2-(1-Acetyl-3-oxo-2,3,4,5-tetrahydro-1H-benzo[e][1,4]diazepin-8-ylamino)-5-chloro-pyrimidin-4-ylamino]-thiophene-2-carboxylic acid methyl amide] was run?
A: 100 to 1000 nM

Q: What about the IC50 [2, 8] of the same compound?
A: < 100 nM

Q: What does the source list for `CCN1C(=O)CCCc2c1ccc(Nc1ncc(Cl)c(N[C@@H]3CCCC[C@H]3NS(C)(=O)=O)n1)c2OC` [Example 120, N-{(1R,2R)-2-[5-Chloro-2-(1-ethyl-6-methoxy-2-oxo-2,3,4,5-tetrahydro-1H-benzo[b]azepin-7-ylamino)-pyrimidin-4-ylamino]-cyclohexyl}-methanesulfonamide]?
A: IC50 [1, 7]: < 100 nM; IC50 [2, 8]: > 10000 nM

Q: How did the IC50 [1, 5] turn out when `CNC(=O)c1cccc(Cl)c1Nc1nc(Nc2ccc3c(c2)-n2ccnc2CCC3)ncc1Cl` [Example 1839, 2-[5-Chloro-2-(5,6-dihydro-4H-3,10b-diaza-benzo[e]azulen-9-ylamino)-pyrimidin-4-ylamino]-3-chloro-N-methyl-benzamide] was run?
A: 1000 to 10000 nM

Q: What about the IC50 [2, 6] of the same compound?
A: 100 to 1000 nM

Q: With `CN([C@@H]1CCCC[C@H]1Nc1nc(Nc2ccc3c(c2)C(C)(C)CCC(=O)N3)ncc1Cl)S(C)(=O)=O` [Example 1674, N-{(1R,2R)-2-[5-Chloro-2-(5,5-dimethyl-2-oxo-2,3,4,5-tetrahydro-1H-benzo[b]azepin-7-ylamino)-pyrimidin-4-ylamino]-cyclohexyl}-N-methyl-methanesulfonamide] as the compound, how does the IC50 [1, 5] read?
A: < 100 nM

Q: And the IC50 [2, 6]?
A: 1000 to 10000 nM

Q: What does the source list for `COc1cc2c(cc1Nc1ncc(Cl)c(Nc3ccccc3S(=O)(=O)N(C)C)n1)CCN(CC(C)(F)F)CC2` [Example 824, 2-{5-Chloro-2-[3-(2,2-difluoro-propyl)-8-methoxy-2,3,4,5-tetrahydro-1H-benzo[d]azepin-7-ylamino]-pyrimidin-4-ylamino}-N,N-dimethyl-benzenesulfonamide]?
A: IC50 [1, 3]: < 100 nM; IC50 [2, 4]: > 10000 nM

Q: How did the IC50 [1, 5] turn out when `COCCOC(=O)c1ccccc1Nc1nc(Nc2cc3c(cc2OC)CCN(CCO)CC3)ncc1Cl` [Example 1549, 2-{5-Chloro-2-[3-(2-hydroxy-ethyl)-8-methoxy-2,3,4,5-tetrahydro-1H-3-benzazepin-7-ylamino]-pyrimidin-4-ylamino}-benzoic acid 2-methoxy-ethyl ester] was run?
A: < 100 nM

Q: And the IC50 [2, 6]?
A: > 10000 nM

Q: How did the IC50 [1, 9] turn out when `CNC(=O)c1cccc(Cl)c1Nc1nc(Nc2ccc3c(c2)CCN(CC(=O)N(C)C)CC3)ncc1Cl` [Example 1370, 3-Chloro-2-[5-chloro-2-(3-dimethylcarbamoylmethyl-2,3,4,5-tetrahydro-1H-benzo[d]azepin-7-ylamino)-pyrimidin-4-ylamino]-N-methyl-benzamide] was run?
A: 100 to 1000 nM

Q: And the IC50 [2, 10]?
A: < 100 nM

Q: How did the IC50 [1, 3] turn out when `CC1(C)CCC(=O)Nc2ccc(Nc3ncc(Cl)c(Nc4cccc(-c5cccnc5)c4)n3)cc21` [Example 993, 7-[5-Chloro-4-(3-pyridin-3-yl-phenylamino)-pyrimidin-2-ylamino]-5,5-dimethyl-1,3,4,5-tetrahydro-benzo[b]azepin-2-one] was run?
A: 100 to 1000 nM

Q: And the IC50 [2, 4]?
A: 1000 to 10000 nM
